Among the data in ChEMBL document CHEMBL1150053, “Scalarane-type bishomosester terpenes from the sponge Phyllospongia foliascens” (J Nat Prod, 1992) are IC50 values, retold here.

≈ marks a conversion by molar mass, not a printed value.

The test has as its system KB. The experiment in a line: Cytotoxicity against human KB cells. In kind it is functional, cell-based.

On to `CCC(O)CC(=O)O[C@@H]1C[C@@H]2[C@@]3(C)CCC[C@](C)(CC)[C@@H]3CC[C@@]2(C)[C@@H]2C[C@@H](O)C3=C(C(=O)O[C@H]3C)[C@@]12C` (some centres not stated) [PHYLLACTONE B], for which 20 µg/mL (≈ 37.7 µM) corresponded to half-maximal inhibition (IC50).

In the case of `CCC(O)CC(=O)O[C@@H]1C[C@@H]2[C@@]3(C)CCC[C@](C)(CC)[C@@H]3CC[C@@]2(C)[C@@H]2C[C@@H](O)C3=C(C(=O)O[C@@H]3C)[C@@]12C` (some centres not stated) [PHYLLACTONE A], the midpoint of inhibition, the IC50, lay at 20 µg/mL (≈ 37.7 µM).
